Drawing on BindingDB's records for doi:10.1016/j.bmcl.2007.09.043 (Amgen, 2007), this text covers EC50 for 1 molecule.

A word on the EC50: it is the concentration at which the effect is half-maximal. High values mean weaker potency, low ones greater potency.

The target of this experiment is T1, N-formyl peptide receptor 2 (Homo sapiens, UniProt P25090).
T1 sequence (P25090 whole entry): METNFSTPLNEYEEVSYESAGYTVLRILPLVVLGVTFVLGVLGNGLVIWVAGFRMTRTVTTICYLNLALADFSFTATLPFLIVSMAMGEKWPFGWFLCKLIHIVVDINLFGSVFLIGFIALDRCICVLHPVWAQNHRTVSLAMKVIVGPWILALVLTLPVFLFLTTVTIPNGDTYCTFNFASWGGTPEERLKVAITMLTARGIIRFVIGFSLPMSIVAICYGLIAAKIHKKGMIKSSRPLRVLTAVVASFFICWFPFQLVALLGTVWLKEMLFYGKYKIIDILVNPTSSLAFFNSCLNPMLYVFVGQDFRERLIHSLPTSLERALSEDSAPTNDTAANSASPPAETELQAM
Description: hFPRL1-Mediated Ca2+ Mobilization Assay. Conditions: pH 7.2; 37 °C. The procedure:
hFPRL 1 activity was assayed using an aequorin-based bioluminescence assay (Ca2+ flux). EC50 values have been determined by Ca2+ flux in CHO recombinant cells co-expressing hFPRL1, G (alpha15) protein, and aequorin.
For orientation: A change in cytosolic calcium serves as a functional read-out for many receptors and channels.

`COc1ccc2[nH]c(C(=O)N3CCC(n4c(=O)[nH]c5ccccc54)CC3)cc2c1` [1-{1-[(5-methoxy-1H-indol-2-yl)carbonyl]piperidin-4-yl}-1,3-dihydro-2H-benzimidazol-2-one] came in with a concentration for a half-maximal effect (EC50) of 6.39 µM.
